Results reported in PubChem BioAssay AID248 (DTP/NCI, 2004).
Several values for one entry are separate records, joined by “and”; a condition that tells them apart may be missing. Equal entries are not always repeated. Toxic doses and inconclusive results are not listed. Cut-off read from the data, not from the text of the source: active = T/C of 150% or more; inactive = T/C below 125%.

Test system: L1210 leukemia ip in BDF1 mice, survival T/C
Assay: NCI In Vivo Anticancer Drug Screen. Data for tumor model L1210 Leukemia (intraperitoneal) in B6D2F1 (BDF1) mice
Details: endpoint: mean survival time, higher = longer survival
Summary of the method: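 Transplantable tumor model; survival measured in treated vs vehicle control mice. Value = treated/control.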

[1] = dose: 100.0 mg/kg/injection, schedule: Q01DX009 (ip), vehicle: Klucel (hydroxypropylcellulose) (HPC)
[2] = dose: 200.0 mg/kg/injection, schedule: Q01DX009 (ip), vehicle: Klucel (hydroxypropylcellulose) (HPC)
[3] = dose: 400.0 mg/kg/injection, schedule: Q01DX009 (ip), vehicle: Klucel (hydroxypropylcellulose) (HPC)
[4] = dose: 100.0 mg/kg/injection, schedule: Q04DX002 (ip), vehicle: Klucel (hydroxypropylcellulose) (HPC)
[5] = dose: 200.0 mg/kg/injection, schedule: Q04DX002 (ip), vehicle: Klucel (hydroxypropylcellulose) (HPC)
[6] = dose: 400.0 mg/kg/injection, schedule: Q04DX002 (ip), vehicle: Klucel (hydroxypropylcellulose) (HPC)
[7] = dose: 100.0 mg/kg/injection, schedule: Q04DX003 (ip), vehicle: saline with Tween-80
[8] = dose: 200.0 mg/kg/injection, schedule: Q04DX003 (ip), vehicle: saline with Tween-80
[9] = dose: 400.0 mg/kg/injection, schedule: Q04DX003 (ip), vehicle: saline with Tween-80
[10] = dose: 100.0 mg/kg/injection, schedule: Q04DX003 (ip), vehicle: Klucel (hydroxypropylcellulose) (HPC)
[11] = dose: 200.0 mg/kg/injection, schedule: Q04DX003 (ip), vehicle: Klucel (hydroxypropylcellulose) (HPC)
[12] = dose: 400.0 mg/kg/injection, schedule: Q04DX003 (ip), vehicle: Klucel (hydroxypropylcellulose) (HPC)
[13] = dose: 100.0 mg/kg/injection, schedule: Q01DX001 (ip), vehicle: Klucel (hydroxypropylcellulose) (HPC)
[14] = dose: 100.0 mg/kg/injection, schedule: Q01DX009 (ip), vehicle: saline with Tween-80
[15] = dose: 100.0 mg/kg/injection, schedule: Q01DX009 (ip), vehicle: water
[16] = dose: 100.0 mg/kg/injection, schedule: Q04DX003 (ip), vehicle: water
[17] = dose: 200.0 mg/kg/injection, schedule: Q04DX003 (ip), vehicle: water
[18] = dose: 100.0 mg/kg/injection, schedule: Q01DX001 (ip), vehicle: saline
[19] = dose: 200.0 mg/kg/injection, schedule: Q01DX001 (ip), vehicle: saline

Measured: T/C

CCc1oc2cc([N+](=O)[O-])ccc2c1C(OC(C)=O)OC(C)=O
inactive: [1] 100 % of control | [2] 105 % of control | [3] 96 % of control

O=c1scc(-c2ccc(-c3ccccc3)cc2)s1
inactive: [4] 109 % of control | [5] 95 % of control | [6] 109 % of control

CCCS(=O)(=O)N(CC(=O)O)Cc1ccccc1
inactive: dose: 50.0 mg/kg/injection, schedule: Q01DX009 (ip), vehicle: other 110 % of control | dose: 100.0 mg/kg/injection, schedule: Q01DX009 (ip), vehicle: other 106 % of control and 107 % of control | [7] 101 % of control | dose: 200.0 mg/kg/injection, schedule: Q01DX009 (ip), vehicle: other 112 % of control and 115 % of control | [8] 104 % of control | dose: 400.0 mg/kg/injection, schedule: Q01DX009 (ip), vehicle: other 104 % of control | [9] 100 % of control

CCC(CC)C(=O)NC(N)=O
inactive: [10] 98 % of control | [11] 103 % of control | [12] 98 % of control

CC(C)=CCC(=O)OC(Cc1ccccc1)(c1ccccc1)C(C)CN(C)C (centres undefined)
inactive: dose: 25.0 mg/kg/injection, schedule: Q01DX009 (ip), vehicle: saline 101 % of control | dose: 50.0 mg/kg/injection, schedule: Q01DX009 (ip), vehicle: saline 98 % of control | dose: 100.0 mg/kg/injection, schedule: Q01DX009 (ip), vehicle: saline 98 % of control

O=C(NO)c1ccc(F)cc1
inactive: dose: 100.0 mg/kg/injection, schedule: Q01DX001 (ip), vehicle: carboxymethylcellulose (CMC) 103 % of control | dose: 200.0 mg/kg/injection, schedule: Q01DX001 (ip), vehicle: carboxymethylcellulose (CMC) 97 % of control | dose: 400.0 mg/kg/injection, schedule: Q01DX001 (ip), vehicle: carboxymethylcellulose (CMC) 92 % of control

c1ccc(C[P+](Cc2ccccc2)(c2ccccc2)c2ccccc2)cc1
inactive: dose: 75.0 mg/kg/injection, schedule: Q01DX001 (ip), vehicle: saline 94 % of control

C(=C(c1ccccc1)c1ccccc1)C1=NCCS1
inactive: dose: 50.0 mg/kg/injection, schedule: Q04DX002 (ip), vehicle: saline with Tween-80 108 % of control | dose: 100.0 mg/kg/injection, schedule: Q03DX002 (ip), vehicle: saline with Tween-80 98 % of control | dose: 100.0 mg/kg/injection, schedule: Q04DX002 (ip), vehicle: saline with Tween-80 101 % of control | dose: 200.0 mg/kg/injection, schedule: Q04DX002 (ip), vehicle: saline with Tween-80 104 % of control | dose: 400.0 mg/kg/injection, schedule: Q03DX002 (ip), vehicle: saline with Tween-80 117 % of control

Nc1nc[nH]c1-c1n[nH]c(=O)[nH]1
inactive: [13] 108 % of control | dose: 200.0 mg/kg/injection, schedule: Q01DX001 (ip), vehicle: Klucel (hydroxypropylcellulose) (HPC) 104 % of control

Nc1nc(N)c(-c2ccc(Cl)c(Cl)c2)c(COc2ccc(NC(=O)c3ccc(S(=O)(=O)F)cc3)cc2Cl)n1
inactive: dose: 50.0 mg/kg/injection, schedule: Q01DX001 (ip), vehicle: Klucel (hydroxypropylcellulose) (HPC) 97 % of control | [13] 97 % of control

CC(=O)Nc1ccc(/C=N/NC(=O)CC2CCCCC2)cc1
inactive: [14] 88 % of control | dose: 200.0 mg/kg/injection, schedule: Q01DX009 (ip), vehicle: saline with Tween-80 93 % of control | dose: 400.0 mg/kg/injection, schedule: Q01DX009 (ip), vehicle: saline with Tween-80 100 % of control

CCOC(=O)N=C=O
inactive: [15] 103 % of control | [16] 95 % of control | dose: 200.0 mg/kg/injection, schedule: Q01DX009 (ip), vehicle: water 100 % of control | [17] 101 % of control | dose: 400.0 mg/kg/injection, schedule: Q04DX003 (ip), vehicle: water 101 % of control

Cc1c(C(N)=O)no[n+]1[O-]
inactive: [4] 87 % of control | [5] 109 % of control

CCOc1ccc(/C=C(\C#N)c2cccc(Cl)c2)cc1
inactive: [1] 100 % of control | [2] 93 % of control | [3] 91 % of control

Nc1ccccc1Nc1ccc(-c2ccc(Nc3ccccc3N)cc2)cc1
inactive: [18] 94 % of control | [19] 100 % of control | dose: 400.0 mg/kg/injection, schedule: Q01DX001 (ip), vehicle: saline 92 % of control

CCOC(=O)/C=C\C(=O)O.[Mn]
inactive: dose: 25.0 mg/kg/injection, schedule: Q01DX009 (ip), vehicle: saline with Tween-80 97 % of control | dose: 25.0 mg/kg/injection, schedule: Q04DX003 (ip), vehicle: saline 108 % of control | dose: 50.0 mg/kg/injection, schedule: Q01DX009 (ip), vehicle: saline with Tween-80 108 % of control | dose: 50.0 mg/kg/injection, schedule: Q04DX003 (ip), vehicle: saline 106 % of control | [14] 110 % of control | dose: 100.0 mg/kg/injection, schedule: Q04DX003 (ip), vehicle: saline 103 % of control and 108 % of control | dose: 200.0 mg/kg/injection, schedule: Q04DX003 (ip), vehicle: saline 120 % of control

NC(N)=N/N=C/c1ccc(F)cc1
inactive: dose: 15.0 mg/kg/injection, schedule: Q01DX Z (ip), vehicle: carboxymethylcellulose (CMC) 95 % of control | dose: 30.0 mg/kg/injection, schedule: Q01DX Z (ip), vehicle: carboxymethylcellulose (CMC) 101 % of control | dose: 60.0 mg/kg/injection, schedule: Q01DX Z (ip), vehicle: carboxymethylcellulose (CMC) 100 % of control and 109 % of control | dose: 120.0 mg/kg/injection, schedule: Q01DX Z (ip), vehicle: carboxymethylcellulose (CMC) 97 % of control

Cc1c(-c2nc(SCC(=O)NN)n[nH]2)no[n+]1[O-]
inactive: dose: 25.0 mg/kg/injection, schedule: Q04DX002 (ip), vehicle: Klucel (hydroxypropylcellulose) (HPC) 102 % of control | dose: 50.0 mg/kg/injection, schedule: Q04DX002 (ip), vehicle: Klucel (hydroxypropylcellulose) (HPC) 91 % of control | [4] 98 % of control

O=C(/C=C(/C(=C/C(=O)c1ccccc1)c1ccccc1)c1ccccc1)c1ccccc1
inactive: dose: 50.0 mg/kg/injection, schedule: Q01DX009 (ip), vehicle: Klucel (hydroxypropylcellulose) (HPC) 102 % of control | [1] 94 % of control | [2] 87 % of control

ClCSc1ccccc1
inactive: dose: 100.0 mg/kg/injection, schedule: Q04DX003 (ip), vehicle: other 100 % of control | dose: 200.0 mg/kg/injection, schedule: Q04DX003 (ip), vehicle: other 104 % of control | dose: 400.0 mg/kg/injection, schedule: Q04DX003 (ip), vehicle: other 102 % of control

CCCCNC(=NC)c1ccc(NC(=O)Nc2ccc(NC(=O)Nc3ccc(C(=NC)NCCCC)cc3)cc2)cc1
inactive: dose: 2.0 mg/kg/injection, schedule: Q01DX Z (ip), vehicle: methylcellulose (MC) 103 % of control | dose: 3.9 mg/kg/injection, schedule: Q01DX Z (ip), vehicle: methylcellulose (MC) 96 % of control

COc1ccc(C(=O)Nc2ccccc2)cc1NC(=O)Nc1ccccc1C(F)(F)F
inactive: [1] 92 % of control | [2] 101 % of control | [3] 95 % of control

O=P1(CCc2ccccc2)CC(Br)C(Br)C1 (centres undefined)
inactive: [10] 101 % of control | [11] 106 % of control | [12] 98 % of control

COc1ccc(OC)c(NC(=O)Nc2cc([N+](=O)[O-])ccc2C)c1
inactive: [5] 92 % of control | [6] 100 % of control

NCCSCCN
inactive: [1] 104 % of control | [2] 100 % of control

CC(N)CSC(=O)c1ccccc1 (centres undefined)
inactive: [7] 100 % of control | [8] 100 % of control | [9] 94 % of control

COc1ccccc1NC(=O)NCCN1CCOCC1
inactive: [1] 103 % of control | [2] 95 % of control

O=C(O)c1occ(Cl)c1Cl
inactive: dose: 25.0 mg/kg/injection, schedule: Q01DX009 (ip), vehicle: water 101 % of control | dose: 50.0 mg/kg/injection, schedule: Q01DX009 (ip), vehicle: water 105 % of control | [18] 103 % of control | [1] 97 % of control | [15] 91 % of control | [16] 102 % of control | [19] 101 % of control | [2] 95 % of control | [17] 90 % of control
